In patent US9056098B2, “Hemoglobin-based oxygen carrier-containing pharmaceutical composition for cancer targeting treatment and prevention of cancer recurrence” (Vision Global Holdings Ltd., priority 2012, dated 2015):
Where “and” joins values, the source holds several entries; their conditions need not be identical. Identical values can stand only once.

Legend:
Type in all cases: cell-based
Huh7 cells = assay: MTT cytotoxicity assay in Huh7 cells
Procedure: (§1) HepG2 and Huh7 cell lines are used. These cells are cultured in DMEM (Invitrogen) with 10% Fetal bovine serum (FBS), 100 U/ml penicillin and 100 μg/ml streptomycin at 37° C. For normoxic condition, cells are incubated with ambient O2 concentration and 5% CO2; for hypoxic condition, cells are incubated with 0.1-0.5% O2 (Quorum FC-7 automatic CO2/O2/N2 gas mixer) and 5% CO2.
(§2) Cell viability is measured using a 3-(4,5-dimethylthiazol-2-yl)-2,5-diphenyltetrazolium bromide (MTT) proliferation assay. Briefly, HepG2 or Huh7 cells are seeded in a 96-well flat-bottomed microplate (6000 cells/well) and cultured in 100 μL growth medium at 37° C. and 5% CO2 for 24 h. Cell culture medium in each well is then replaced by 100 μL cell growth medium, containing either no drug, Hb alone or Hb with another chemotherapeutics at their IC50 concentrations. Incubation of Hb for 24 h, 20 μL MTT labeling reagent (5 mg/mL in PBS solution) is added to each well for further 4 h at 37° C. The growth medium is removed gently, and 200 μL DMSO is then added to each well as solubilizing agent to dissolve the formazan crystals completely. The absorbance at the wavelength of 570 nm is measured by Multiskan EX (Thermo Electron Corporation), and each data point represents the means±SD from triplicate wells.

HepG2 cells = assay: MTT cytotoxicity assay in HepG2 cells
Procedure: as §1, §2

[1] = test system: MCF7 cells isolated from mammospheres (cancer stem cells); assay: MTT assay on cancer stem cells from MCF7 mammospheres; conditions: Hb 0.2 g/dL, Bort 0.5 μM, 5FU 5 μM
Procedure: as §2
To test sensitivity of the cancer stem cells to chemotherapeutic agent alone or to the combined therapy of hemoglobin-based oxygen carrier and the chemotherapeutic agent, different sets of chemotherapeutic agent and/or the hemoglobin-based oxygen carrier of the present invention are administered to MCF7 cells isolated from mammospheres which are obtained at later passages, e.g. passages 7 and 8. Before testing the sensitivity of the cancer stem cells, the drug resistance of CD44+/CD24− to chemotherapeutic agent is shown in FIG. 32. Unsorted MCF7 cells and CD44+/CD24− sorted cells are incubated with DMSO (as control) and 90 nM of Taxol for 16 hours and 4 days. Phase contrast images (FIG. 32) for each set of sample are taken at each time interval (16 hours and 4 days) and the sorted cells after Taxol treatment for 4 days are further tested by MTT assay (as described in Example 3) to confirm the drug resistance of these cells to chemotherapeutic agent.
The high resistance of the CSCs to chemotherapeutic agent is further confirmed by the results of MTT assays on single cells from two passages (P7 and P8) after the mammospheres are treated with different combination of chemical(s) for at least 24 hours before trypsinization of mammospheres. The mammospheres are grown under the hypoxic conditions (5% CO2, 1.1% 02) to mimic the physiological environment of a tumor. Different combination of chemical(s) used in the MTT assays include the Hb alone (0.2 g/dL), Bortezomib (“Bort”, 0.5 μM) alone, 5-fluorouracil (“5FU”, 5 μM) alone, or any combination of the above. In case of the combinational drug (i.e. Hb+at least one chemotherapeutic agent), the trypsinized cells are incubated with 0.2 g/dL of Hb for 24 hours followed by the addition of the intended chemotherapeutic agent(s) and incubated for another 24 hours. In the normalized value, “1” represents 100% of survival rate; 0.75 represents 75% of survival rate, etc.

[2] = test system: CD44+/CD24− sorted MCF7 cells; assay: Taxol resistance of CD44+/CD24− sorted MCF7 cells (morphology, MTT); conditions: 90 nM
Procedure: as §2
In order to test the effect of hemoglobin-based oxygen carrier on the cancer stem cells in a tumor, the MCF7 cells are incubated under hypoxic condition (5% CO2 and 1.1% O2) for 9-20 days before passing to the cell sorter where two filters are used: PE-A for CD24 marker while APC-A for CD44 marker. Quadrant 1 where cells are positive to CD44 and negative to CD24 (FIG. 31) are sorted for further analysis. […]

[3] = Homo sapiens, Huh-7, Huh7 hypoxic
[4] = Homo sapiens, Huh-7, Huh7 normoxic
[5] = Homo sapiens, HepG2, HepG2 hypoxic
[6] = Homo sapiens, HepG2, HepG2 normoxic
[7] = Mammosphere (P7) under Hypoxic condition
[8] = Mammosphere (P8) under Hypoxic condition

| SMILES | IC50 (Huh7 cells; [3]) | IC50 (Huh7 cells; [4]) | IC50 (HepG2 cells; [5]) | IC50 (HepG2 cells; [6]) | Absorbance (replicates) [1, 7] | Normalized absorbance (replicates), 1 represents 100% of survival rate [1, 7] | Normalized absorbance Avg, 1 represents 100% of survival rate [1, 7] | Absorbance (replicates) [1, 8] | Normalized absorbance (replicates), 1 represents 100% of survival rate [1, 8] | Normalized absorbance Avg, 1 represents 100% of survival rate [1, 8] | resistance of Huh7 cells as compared to HepG2 cells (Huh7 cells; hypoxic condition) | resistance of Huh7 cells as compared to HepG2 cells (Huh7 cells; normoxic condition) | IC50 (Huh7 cells; Huh7 hypoxic) | IC50 (Huh7 cells; Huh7 normoxic) | IC50 (HepG2 cells; HepG2 hypoxic) | IC50 (HepG2 cells; HepG2 normoxic) | survival (MTT) ([2]; 4 days) | mammosphere formation ([2]; both unsorted and CD44+/CD24− sorted cells) |
| --- | --- | --- | --- | --- | --- | --- | --- | --- | --- | --- | --- | --- | --- | --- | --- | --- | --- | --- |
| O=c1[nH]cc(F)c(=O)[nH]1 [5FU, 5-fluorouracil] | 4000 µM | 3500 µM | 4000 µM | 4000 µM | 0.171 and 0.197 and 0.139 and 0.143 and 0.169 | 0.7566 and 0.8942 and 0.9048 and 1.042 and 0.7355 | 0.8667 | 0.155 and 0.165 and 0.129 and 0.157 | 0.7416 and 0.7895 and 0.6172 and 0.7512 | 0.7249 | – | – | – | – | – | – | – | – |
| CC(C)C[C@H](NC(=O)[C@H](Cc1ccccc1)NC(=O)c1cnccn1)B(O)O [Bortezomib] | 60 µM | 55 µM | 0.7 µM | 0.5 µM | 0.178 and 0.172 and 0.177 and 0.163 and 0.174 | 0.8624 and 0.9206 and 0.9418 and 0.9101 and 0.9365 | 0.9143 | 0.169 and 0.166 and 0.159 and 0.155 | 0.8086 and 0.7943 and 0.7608 and 0.7416 | 0.7763 | 86 fold | 110 fold | – | – | – | – | – | – |
| N.N.[Cl][Pt][Cl] [Cisplatin] | – | – | – | – | – | – | – | – | – | – | – | – | 100 µM | 70 µM | 170 µM | 130 µM | – | – |
| COc1cccc2c1C(=O)c1c(O)c3c(c(O)c1C2=O)C[C@@](O)(C(=O)CO)C[C@@H]3O[C@H]1C[C@H](N)[C@H](O)[C@H](C)O1 [Doxorubicin] | 6 µM | 5 µM | 30 µM | 10 µM | – | – | – | – | – | – | – | – | – | – | – | – | – | – |
| CC(=O)O[C@H]1C(=O)[C@@]2(C)[C@H]([C@H](OC(=O)c3ccccc3)[C@]3(O)C[C@H](OC(=O)[C@H](O)[C@@H](NC(=O)c4ccccc4)c4ccccc4)C(C)=C1C3(C)C)[C@]1(OC(C)=O)CO[C@@H]1C[C@@H]2O [Taxol] | – | – | – | – | – | – | – | – | – | – | – | – | – | – | – | – | about 96% | seem to be inhibited |
